Data published in patent US20050250801A1, “Method of treating cancer with azaspirane compositions” (priority 2003, published 2005).

Tests used:
CaCo-2 cells = test: Inhibition of proliferation of CaCo-2 cells (WST-1, Example 8); type: cell-based; settings: Homo sapiens, 12 hours; for inhibition at 5 µM: read-out: % Inhibition of Proliferation at 5 μM Compound
Description: The effect of N,N,-diethyl-8,8-dipropyl-2-azaspiro[4,5]decane-2-propanamine dimaleate (Compound 1) and other analogs (structures shown in Table 7) on proliferation of CaCo-2, a human colon carcinoma cell line, were evaluated in the following manner. Cell proliferation was measured by WST-1 dye conversion to Formazan assay using a proliferation kit from BioVision, CA. The procedure used was essentially the same as described in the manufacture's instructions. Briefly, cells were grown for 7 days until they formed semi-confluent monolayers. On day 7, cells were trypsinized and re-suspended in 96-well plates at a concentration of approximately 50,000 cells/well. […] A solution of 10 μl of WST-1 dye per well was added and plates were read after 4 hours at 440 and 600 nm using an ELISA plate reader. The absorbance at 440-600 nm is directly proportion to the number of proliferating cells. All samples were measured in duplicate and results were expressed as an average of two determinations.

[1] = tested on: chorioallantoic membrane (CAM); test: Anti-angiogenesis CAM assay; type: in vivo, White Leghorn eggs; settings: Dose per egg 100 μg; 48 hour exposure; ten eggs
Description: The dosing was effected by pipetting 40 μl of the indicated solution onto a 13 mm round Thermanox® coverslip and allowing it to air dry. After the material appeared dry, the coverslip was placed onto the chorioallantoic membrane (CAM) of each egg insuring contact of the dried test article with the CAM. After dosing, the eggs were returned to the incubator for approximately 48 hours. Following the 48 hour exposure period, the eggs were removed from the incubator, observed for viability, and the exposed area under the coverslip was examined for loss of vasculature.

Q: What does the source list for `CCCCC1(CCCC)CCC2(CCN(CCCN(C)C)C2)CC1` [J]?
A: inhibition at 5 µM (CaCo-2 cells): 84%; IC50 (CaCo-2 cells): ~2.5 µM

Q: How did the inhibition at 5 µM (CaCo-2 cells) turn out when `CCCCC1(CC)CCC2(CCN(CCCN(C)C)C2)CC1` (stereo not shown) [K] was run?
A: 81%

Q: And the IC50 (CaCo-2 cells)?
A: ~2.5 µM

Q: What does the source list for `CN(C)CCCN1CCC2(CCC(C(C)(C)C)CC2)CC1` [A]?
A: inhibition at 5 µM (CaCo-2 cells): 45%; IC50 (CaCo-2 cells): ~20 µM

Q: How did the inhibition at 5 µM (CaCo-2 cells) turn out when `CCCCCC1(CCCCC)CCC2(CCN(CCCN(C)C)CC2)CC1` [G] was run?
A: 86%

Q: And the IC50 (CaCo-2 cells)?
A: ~2.5 µM

Q: What does the source list for `CCCC1(CCC)CCC2(CCN(CCCN3CCCCC3)C2)CC1` [M]?
A: inhibition at 5 µM (CaCo-2 cells): 67%; IC50 (CaCo-2 cells): ~4 µM

Q: Which results are given for `CN(C)CCCN1CCC2(CCCCC2)CC1` [D]?
A: inhibition at 5 µM (CaCo-2 cells): 0%; IC50 (CaCo-2 cells): > 20 µM

Q: For `CN(C)CCCN1CCC2(CCC(C(C)(C)C)CC2)C1` (stereo not shown) [Compound C], which inhibition at 5 µM (CaCo-2 cells) is on record?
A: 15%

Q: And the IC50 (CaCo-2 cells)?
A: > 20 µM

Q: Which inhibition at 5 µM (CaCo-2 cells) does the source give for `CCCC1(CCC)CCC2(CCN(CCCCCCN(C)C)C2)CC1` [L] here?
A: 76%

Q: And the IC50 (CaCo-2 cells)?
A: ~3.5 µM

Q: Which inhibition at 5 µM (CaCo-2 cells) does the source give for `CN(C)CCCN1CCC2(CCC(C)(C)CC2)C1` [E] here?
A: 0%

Q: And the IC50 (CaCo-2 cells)?
A: > 20 µM

Q: For `CN(C)CCCN1CCC2(CCOCC2)C1` [B], which inhibition at 5 µM (CaCo-2 cells) is on record?
A: 0%

Q: What about the IC50 (CaCo-2 cells) of the same compound?
A: > 20 µM

Q: With `CCCCCCCCCCC1CCC2(CC1)CCN(CCCN(C)C)C2` (stereo not shown) [H] as the compound, how does the inhibition at 5 µM (CaCo-2 cells) read?
A: 73%

Q: What about the IC50 (CaCo-2 cells) of the same compound?
A: ~3.5 µM

Q: Which “Dead Eggs” value [1] does the source give for `O=C1CCC(N2C(=O)c3ccccc3C2=O)C(=O)N1` (stereo not shown) [Thalidomide, reference compound] here?
A: 0

Q: What does the source list for `CCC1(CC)CCC2(CCN(CCCN(C)C)C2)CC1` [F]?
A: inhibition at 5 µM (CaCo-2 cells): 35%; IC50 (CaCo-2 cells): > 20 µM
